Assay results published in patent US11512069B2, “TLR7/8 antagonists and uses thereof” (Merck Patent GmbH, priority 2016, dated 2022).

Target: T1, TLR7 (Homo sapiens, UniProt Q9NYK1)
T1 construct: expressed in transfected cells; host or cells: HEK cells carrying TLR7 and an NF-kB reporter read with Steady-Glo
T1 sequence (Q9NYK1 27-1049): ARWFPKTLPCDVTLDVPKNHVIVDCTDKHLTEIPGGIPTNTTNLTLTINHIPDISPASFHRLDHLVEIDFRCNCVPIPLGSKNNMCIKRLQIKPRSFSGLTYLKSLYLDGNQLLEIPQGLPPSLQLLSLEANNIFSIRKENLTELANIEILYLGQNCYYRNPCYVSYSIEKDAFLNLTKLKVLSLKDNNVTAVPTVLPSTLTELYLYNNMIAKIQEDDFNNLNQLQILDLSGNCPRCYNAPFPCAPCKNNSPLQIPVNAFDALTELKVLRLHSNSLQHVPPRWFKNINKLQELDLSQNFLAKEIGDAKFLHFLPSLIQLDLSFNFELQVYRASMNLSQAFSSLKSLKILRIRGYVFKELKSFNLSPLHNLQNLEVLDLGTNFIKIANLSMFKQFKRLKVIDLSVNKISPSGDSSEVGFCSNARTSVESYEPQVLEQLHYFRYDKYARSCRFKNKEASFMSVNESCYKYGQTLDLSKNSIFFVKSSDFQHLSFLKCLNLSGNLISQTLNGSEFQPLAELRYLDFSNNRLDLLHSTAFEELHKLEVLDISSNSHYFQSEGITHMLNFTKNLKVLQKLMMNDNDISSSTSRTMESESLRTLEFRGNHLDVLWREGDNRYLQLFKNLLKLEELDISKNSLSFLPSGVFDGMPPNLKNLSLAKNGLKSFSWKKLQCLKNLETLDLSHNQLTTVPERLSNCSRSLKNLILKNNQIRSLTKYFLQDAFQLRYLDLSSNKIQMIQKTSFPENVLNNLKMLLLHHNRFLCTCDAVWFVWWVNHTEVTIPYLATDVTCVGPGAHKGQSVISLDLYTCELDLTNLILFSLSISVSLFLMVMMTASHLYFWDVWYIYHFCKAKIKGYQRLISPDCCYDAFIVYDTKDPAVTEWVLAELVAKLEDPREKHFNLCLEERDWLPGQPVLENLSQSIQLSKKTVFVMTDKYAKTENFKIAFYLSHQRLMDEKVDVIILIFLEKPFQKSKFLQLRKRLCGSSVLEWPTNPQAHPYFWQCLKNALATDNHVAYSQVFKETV
Experiment: HEK Cell Assay (TLR7/NFKb HEK reporter cells, Steady-Glo)
Assay type: cell-based
Conditions: compound 30 min, then R*48 agonist 5 hours, Steady-Glo readout, read-out: Potency
Outline: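 TLR7/NF-κB HEK reporter cells cultured 24 h, then pre-incubated 30 min with compound before adding R*48 agonist. Luciferase read by Steady-Glo luminescence after 5 h.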

Structure (SMILES)	IC50
C[C@@H]1C[C@@H](c2cccc3ncccc23)CN(C(=O)NC2CCN(C)CC2)C1 [Compound 114, (3R,5S)-3-Methyl-5-quinolin-5-yl-piperidine-1-carboxylic acid (1-methyl-piperidin-4-yl)-amide]	1000 to 20000 nM
C[C@@H]1C[C@H](c2cccc3ncccc23)CN(C(=O)NC2CCN(C)CC2)C1 [Compound 115, (3R,5R)-3-Methyl-5-quinolin-5-yl-piperidine-1-carboxylic acid (1-methyl-piperidin-4-yl)-amide]	1000 to 20000 nM
C[C@@H]1C[C@H](c2ccc(C#N)c3ncccc23)CN(C(=O)CN2CCC3(CC2)CNC3)C1 [Compound 117, 5-[(3R,5R)-1-(2-2,7-Diaza-spiro[3.5]non-7-yl-acetyl)-5-methyl-piperidin-3-yl]-quinoline-8-carbonitrile]	1000 to 20000 nM
C[C@@H]1C[C@H](c2ccc(C#N)c3ncccc23)CN(C(N)=O)C1 [Compound 118, (3R,5R)-3-(8-Cyano-quinolin-5-yl)-5-methyl-piperidine-1-carboxylic acid amide]	1000 to 20000 nM
C[C@@H]1C[C@H](c2ccc(C#N)c3ncccc23)CN(C(=N)N)C1 [Compound 119, (3R,5R)-3-(8-Cyano-quinolin-5-yl)-5-methyl-piperidine-1-carboxamidine]	1000 to 20000 nM
C[C@H]1C[C@@H](N)C[C@@H](c2ccc(C#N)c3nccnc23)C1 [Compound 121, 8-[(1S,3R,5R)-3-amino-5-methylcyclohexyl]quinoxaline-5-carbonitrile]	< 1000 nM
C[C@@H]1C[C@H](N)C[C@H](c2ccc(C#N)c3nccnc23)C1 [Compound 122, 8-((1R,3S,5S)-3-amino-5-methylcyclohexyl)quinoxaline-5-carbonitrile]	1000 to 20000 nM
C[C@H]1C[C@@H](N)C[C@H](c2ccc(C#N)c3nccnc23)C1 [Compound 123, 8-[(1R,3R,5R)-3-amino-5-methylcyclohexyl]quinoxaline-5-carbonitrile]	< 1000 nM
C[C@@H]1C[C@H](N)C[C@@H](c2ccc(C#N)c3nccnc23)C1 [Compound 124, 8-((1S,3S,5S)-3-amino-5-methylcyclohexyl)quinoxaline-5-carbonitrile]	> 20000 nM
CC(C)[C@H](O)C(=O)N[C@@H]1C[C@H](C)C[C@H](c2ccc(C#N)c3nccnc23)C1 [Compound 125, (S)—N-((1R,3S,5R)-3-(8-cyanoquinoxalin-5-yl)-5-methylcyclohexyl)-2-hydroxy-3-methylbutanamide]	< 1000 nM
CC(C)[C@H](O)C(=O)N[C@H]1C[C@@H](C)C[C@@H](c2ccc(C#N)c3nccnc23)C1 [Compound 126, (S)—N-((1S,3R,5S)-3-(8-cyanoquinoxalin-5-yl)-5-methylcyclohexyl)-2-hydroxy-3-methylbutanamide]	1000 to 20000 nM
CC(C)[C@H](O)C(=O)N[C@@H]1C[C@H](C)C[C@@H](c2ccc(C#N)c3nccnc23)C1 [Compound 127, (S)—N-((1R,3R,5R)-3-(8-cyanoquinoxalin-5-yl)-5-methylcyclohexyl)-2-hydroxy-3-methylbutanamide]	> 20000 nM
CC(C)[C@H](O)C(=O)N[C@H]1C[C@@H](C)C[C@H](c2ccc(C#N)c3nccnc23)C1 [Compound 128, (S)—N-((1S,3S,5S)-3-(8-cyanoquinoxalin-5-yl)-5-methylcyclohexyl)-2-hydroxy-3-methylbutanamide]	1000 to 20000 nM
C[C@H]1C[C@@H](N)C[C@@H](c2ccc(C(F)(F)F)c3ncccc23)C1 [Compound 135, (1R,3R,5S)-3-methyl-5-(8-(trifluoromethyl)quinolin-5-yl)cyclohexanamine]	1000 to 20000 nM
C[C@@H]1C[C@H](N)C[C@H](c2ccc(C(F)(F)F)c3ncccc23)C1 [Compound 136, (1S,3S,5R)-3-methyl-5-(8-(trifluoromethyl)quinolin-5-yl)cyclohexanamine]	< 1000 nM
C[C@H]1C[C@@H](N)C[C@H](c2ccc(C(F)(F)F)c3ncccc23)C1 [Compound 137, (1R,3R,5R)-3-methyl-5-(8-(trifluoromethyl)quinolin-5-yl)cyclohexanamine]	1000 to 20000 nM
C[C@@H]1C[C@H](N)C[C@@H](c2ccc(C(F)(F)F)c3ncccc23)C1 [Compound 138, (1S,3S,5S)-3-methyl-5-(8-(trifluoromethyl)quinolin-5-yl)cyclohexanamine]	< 1000 nM
C[C@H]1C[C@@H](N)C[C@@H](c2ccc(C(F)(F)F)c3nccnc23)C1 [Compound 139, (1R,3R,5S)-3-methyl-5-(8-(trifluoromethyl)quinoxalin-5-yl)cyclohexanamine]	< 1000 nM
C[C@H]1C[C@@H](N)C[C@H](c2ccc(C(F)(F)F)c3nccnc23)C1 [Compound 140, (1R,3R,5R)-3-methyl-5-(8-(trifluoromethyl)quinoxalin-5-yl)cyclohexanamine]	1000 to 20000 nM
C[C@@H]1C[C@H](N)C[C@@H](c2ccc(C(F)(F)F)c3nccnc23)C1 [Compound 141, (1S,3S,5S)-3-methyl-5-(8-(trifluoromethyl)quinoxalin-5-yl)cyclohexanamine]	< 1000 nM
C[C@@H]1C[C@H](N)C[C@H](c2ccc(C(F)(F)F)c3nccnc23)C1 [Compound 142, (1S,3S,5R)-3-methyl-5-(8-(trifluoromethyl)quinoxalin-5-yl)cyclohexanamine]	< 1000 nM
COCCN[C@@H]1C[C@H](C)C[C@H](c2ccc(C(F)(F)F)c3nccnc23)C1 [Compound 147, (1R,3R,5S)—N-(2-methoxyethyl)-3-methyl-5-(8-(trifluoromethyl)quinoxalin-5-yl)cyclohexanamine]	> 20000 nM
COCCN[C@H]1C[C@@H](C)C[C@@H](c2ccc(C(F)(F)F)c3nccnc23)C1 [Compound 148, (1S,3S,5R)—N-(2-methoxyethyl)-3-methyl-5-(8-(trifluoromethyl)quinoxalin-5-yl)cyclohexanamine]	1000 to 20000 nM
COCCN[C@@H]1C[C@H](C)C[C@@H](c2ccc(C(F)(F)F)c3nccnc23)C1 [Compound 149, (1R,3R,5R)—N-(2-methoxyethyl)-3-methyl-5-(8-(trifluoromethyl)quinoxalin-5-yl)cyclohexanamine]	1000 to 20000 nM
COCCN[C@H]1C[C@@H](C)C[C@H](c2ccc(C(F)(F)F)c3nccnc23)C1 [Compound 150, (1S,3S,5S)—N-(2-methoxyethyl)-3-methyl-5-(8-(trifluoromethyl)quinoxalin-5-yl)cyclohexanamine]	> 20000 nM
COCCN[C@@H]1C[C@H](C)C[C@H](c2ccc(C(F)(F)F)c3ncccc23)C1 [Compound 152, (1R,3R,5S)—N-(2-methoxyethyl)-3-methyl-5-(8-(trifluoromethyl)quinolin-5-yl)cyclohexanamine]	> 20000 nM
COCCN[C@H]1C[C@@H](C)C[C@@H](c2ccc(C(F)(F)F)c3ncccc23)C1 [Compound 153, (1S,3S,5R)—N-(2-methoxyethyl)-3-methyl-5-(8-(trifluoromethyl)quinolin-5-yl)cyclohexanamine]	1000 to 20000 nM
C[C@H]1C[C@@H](NC(=O)[C@@H](O)C(C)(C)C)C[C@@H](c2ccc(C(F)(F)F)c3nccnc23)C1 [Compound 154, (S)-2-hydroxy-3,3-dimethyl-N-((1R,3R,5S)-3-methyl-5-(8-(trifluoromethyl)quinoxalin-5-yl)cyclohexyl)butanamide]	< 1000 nM
C[C@@H]1C[C@H](NC(=O)[C@@H](O)C(C)(C)C)C[C@H](c2ccc(C(F)(F)F)c3nccnc23)C1 [Compound 155, (S)-2-hydroxy-3,3-dimethyl-N-((1S,3S,5R)-3-methyl-5-(8-(trifluoromethyl)quinoxalin-5-yl)cyclohexyl)butanamide]	1000 to 20000 nM
COCCN[C@@H]1C[C@H](C)C[C@H](c2ccc(F)c3ncccc23)C1 [Compound 160, (cis-1,3,5)-3-(8-fluoroquinolin-5-yl)-N-(2-methoxyethyl)-5-methylcyclohexan-1-amine]	> 20000 nM
